{"source": "patent US8404665B2", "about": "“In vivo use of glutathione S-transferase activated nitric oxide donors” (University of Utah Research Foundation, priority 2002, dated 2013)", "tested_on": "HL-60 cells", "assay": "HL-60 leukemia cell growth (Coulter counter or MTT assay)", "type": "cell-based, human", "details": "for IC50: Homo sapiens; for effect on cell growth: HL-60, NAC 0.3-0.5 mM or BSO 0.2-0.3 mM alone; for inhibition of cell growth: HL-60 screen", "procedure": "Cell Lines and Culture Conditions. HL-60, DLD1, and U937 cells were obtained from ATCC (Rockville, Md.). Meth A cells were from Dr. Wolfram Samlowski (University of Utah, Salt Lake City, Utah). The PPC-1 cell line was provided by Dr. Graeme Bolger (University of Alabama, Birmingham, Ala.). For the cell growth and apoptosis experiments, cells were cultured at a density of 150,000 cells/ml in RPMI-1640 with 10% fetal bovine serum at 37° C. in a 5% CO2 humidified atmosphere. Agents were added at the indicated concentrations 24 h after culture initiation. At the indicated time intervals, cells were harvested and washed twice in phosphate buffered saline (PBS) prior to processing for analysis of growth, differentiation, and apoptosis.\nCell Growth, Differentiation and Apoptosis Assays. The number of viable cells was determined using the MTT assay according to the manufacturer's protocol (Promega, Madison, Wis.) or using a Coulter counter. Briefly, a MTT assay is an analytical technique that uses the dye dimethylthiazolyl-diphenyltetrazolium (MTT) which turns from yellow to brownish-purple as it is reduced in the mitochondria of living cells. The assay is useful in calorimetric quantitation of cell viability and proliferation. In contrast, cell differentiation was evaluated using Wright and Non-Specific Esterase (NSE) staining of cells collected on microscope slides by cytospin as previously described (Magrinat, G. et al. (1992) Blood 80: 1880-1884). Apoptosis was assayed by flow cytometry and by determining DNA fragmentation using agarose gel electrophoresis as previously described (Shami, P. J. et al. (1998) Leukemia 12: 1461-1466). For the flow cytometry assay, we used the propidium iodide staining method of Nicoletti et al. (Nicoletti, I. et al. (1991) J. Immunol. Methods 139: 271-279).\nFor the initial screen, HL60 cells were cultured in triplicate in RPMI1640/10% FBS under standard conditions. Compounds were added to the cultures at the following concentrations: 0, 0.1, 1, 10, and 100 micromolar (uM). Three days after addition of the compounds cell growth was determined either using a Coulter counter or using the MTT assay.\nThe antiproliferative effects in the human AML (Acute Myeloid Leukemia) cell lines, HL-60 (myeloid leukemia) and U937 (monoblastic leukemia) cells were treated with JS-K for a period of 3 days, upon which cell growth was evaluated using a Coulter counter (CITY, STATE). JS-K was added to HL-60 cells at 0, 0.25, 0.5, 0.75, and 1.0 μM concentrations. […] Similar results were obtained in U937 cells under similar conditions.", "key": {"[1]": {"details": "HL-60 assay system, comparison with chemotherapeutic agents, read-out: IC50, growth inhibition"}}, "note": "Read-outs that look alike come from different tables or passages of the source.", "data": [{"compound": "O=[N+]([O-])c1ccc(Cl)c([N+](=O)[O-])c1", "note": "[1-Chloro-2,4-dinitrobenzene, reference compound]", "values": [{"measurement": "IC50", "setting": "HL-60, read-out: IC50, growth inhibition", "result": "~6700", "unit": "nM"}]}, {"compound": "CCCCS(=N)(=O)CCC(N)C(=O)O", "note": "(stereo not shown) [BSO, buthionine sulfoximine, reference compound]", "values": [{"measurement": "effect on cell growth", "result": "did not appear to significantly affect cell growth"}]}, {"compound": "CC(=O)N[C@@H](CS)C(=O)O", "note": "[NAC, N-acetyl-L-cysteine, reference compound]", "values": [{"measurement": "effect on cell growth", "result": "did not appear to significantly affect cell growth"}]}, {"compound": "COc1cc([C@@H]2c3cc4c(cc3[C@@H](O[C@@H]3O[C@@H]5CO[C@@H](C)O[C@H]5[C@H](O)[C@H]3O)[C@H]3COC(=O)[C@H]23)OCO4)cc(OC)c1O", "note": "[etoposide, reference compound]", "values": [{"measurement": "IC50", "setting": "[1]", "result": 300, "unit": "nM"}]}, {"compound": "O=[N+]([O-])c1ccc(ON=[N+]([O-])N2CCN(c3ccccc3)CC2)c([N+](=O)[O-])c1", "note": "[JXC-2-40, O^2-(2,4-dinitrophenyl) 1-[4-phenylpiperazin-1-yl]diazen-1-ium-1,2-diolate]", "values": [{"measurement": "inhibition of cell growth", "result": "good inhibitors of cell growth"}]}, {"compound": "COc1cccc2c1C(=O)c1c(O)c3c(c(O)c1C2=O)C[C@@](O)(C(C)=O)C[C@@H]3O[C@H]1C[C@H](N)[C@H](O)[C@H](C)O1", "note": "[daunorubicin, reference compound]", "values": [{"measurement": "IC50", "setting": "[1]", "result": 10, "unit": "nM"}]}, {"compound": "O=[N+]([O-])c1ccc(ON=[N+]([O-])N2CCN(c3ncccn3)CC2)c([N+](=O)[O-])c1", "note": "[JXC-2-56, O^2-(2,4-dinitrophenyl) 1-[4-(pyrimidin-2-yl)piperazin-1-yl]diazen-1-ium-1,2-diolate]", "values": [{"measurement": "inhibition of cell growth", "result": "good inhibitors of cell growth"}]}]}
